*1 amine or outer side, *2 acyl side, *3 side chain or, on linkers, in order; H or OH if unused. Where a SMILES comes first, the peptide text is derived from it. Side-chain parts run from the residue outwards. [ ]: non-standard residue; d: D form. The star is where a group is joined. C20 diacid = O=C(O)CCCCCCCCCCCCCCCCCCC(=O)*; αMePhe(2-F) = C[C@](N)(Cc1ccccc1F)C(=O)O; γGlu = O=C(O)[C@H](CCC(=O)[*:2])N[*:1]; 4Pal = N[C@@H](Cc1ccncc1)C(=O)O; AEEA = NCCOCCOCC(=O)O; Aib = CC(C)(N)C(=O)O
Legend:
[1] = molecular target: T1, human GcgR (Homo sapiens, UniProt P47871); assay: [125I]-Glucagon binding, SPA with WGA beads, 0.1% bacitracin; conditions: geometric mean, read-out: hGcgR Ki
T1 construct: expressed in transfected cells; crude membranes
T1 sequence (P47871 26-477): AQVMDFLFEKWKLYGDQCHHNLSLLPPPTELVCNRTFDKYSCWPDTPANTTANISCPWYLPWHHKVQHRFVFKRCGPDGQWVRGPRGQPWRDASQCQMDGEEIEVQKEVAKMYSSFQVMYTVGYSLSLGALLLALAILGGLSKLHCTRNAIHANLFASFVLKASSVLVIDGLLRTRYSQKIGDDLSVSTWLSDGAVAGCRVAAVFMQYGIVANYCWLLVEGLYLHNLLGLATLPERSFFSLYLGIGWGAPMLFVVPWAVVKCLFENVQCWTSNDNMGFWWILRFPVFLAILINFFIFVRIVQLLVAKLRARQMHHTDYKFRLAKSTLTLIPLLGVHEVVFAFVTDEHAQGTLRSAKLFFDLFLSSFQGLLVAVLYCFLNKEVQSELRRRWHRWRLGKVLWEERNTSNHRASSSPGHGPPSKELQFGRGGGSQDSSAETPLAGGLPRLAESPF
Procedure, shortened: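 SPA competition binding with WGA beads on crude membranes from HEK293 cells stably expressing hGcgR. Buffer: 25 mM HEPES pH 7.4, 2.5 mM CaCl2, 1 mM MgCl2, 0.1% bacitracin, 0.003% Tween-20; 10-point 3-fold dilutions, NSB with 1 μM Gcg.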

[2] = molecular target: T2, human GLP-1R (Homo sapiens, UniProt P43220); assay: [125I]-GLP-1 binding, SPA with WGA beads, 0.1% bacitracin; conditions: geometric mean, read-out: hGLP1R Ki
T2 construct: expressed in transfected cells; crude membranes
T2 sequence (P43220 24-463): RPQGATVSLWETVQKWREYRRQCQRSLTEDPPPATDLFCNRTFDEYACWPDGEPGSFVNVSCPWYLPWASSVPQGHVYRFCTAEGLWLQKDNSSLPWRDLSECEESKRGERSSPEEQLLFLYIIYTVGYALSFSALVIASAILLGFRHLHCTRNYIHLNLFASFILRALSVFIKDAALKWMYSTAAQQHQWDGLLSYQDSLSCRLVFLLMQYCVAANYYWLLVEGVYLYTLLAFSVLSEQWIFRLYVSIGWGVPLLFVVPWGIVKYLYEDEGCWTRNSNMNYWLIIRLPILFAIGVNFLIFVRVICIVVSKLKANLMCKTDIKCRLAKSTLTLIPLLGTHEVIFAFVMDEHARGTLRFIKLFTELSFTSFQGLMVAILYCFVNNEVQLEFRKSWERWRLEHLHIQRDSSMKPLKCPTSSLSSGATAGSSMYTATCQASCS
Procedure, shortened: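 Binding buffer was 25 mM HEPES pH 7.4 with 2.5 mM CaCl2, 1 mM MgCl2, 0.1% (w/v) bacitracin, 0.003% Tween-20 and EDTA-free protease inhibitors. Four-parameter regression gave IC50, converted to Ki (geometric mean, SEM, n independent days).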

| SMILES | Ki [1] | Ki [2] |
| --- | --- | --- |
| CC[C@H](C)[C@H](NC(=O)[C@H](CO)NC(=O)[C@H](Cc1ccc(O)cc1)NC(=O)[C@H](CC(=O)O)NC(=O)[C@H](CO)NC(=O)[C@@H](NC(=O)[C@](C)(Cc1ccccc1F)NC(=O)[C@@H](NC(=O)CNC(=O)[C@H](CCC(=O)O)NC(=O)C(C)(C)NC(=O)[C@@H](N)Cc1ccc(O)cc1)[C@@H](C)O)[C@@H](C)CC)C(=O)N[C@@H](CC(C)C)C(=O)N[C@@H](CC(C)C)C(=O)N[C@@H](CC(=O)O)C(=O)N[C@@H](CCCCN)C(=O)N[C@H](C(=O)N[C@@H](Cc1c[nH]cn1)C(=O)N[C@@H](CCC(N)=O)C(=O)NC(C)(C)C(=O)N[C@@H](CC(=O)O)C(=O)N[C@@H](Cc1ccccc1)C(=O)N[C@H](C(=O)N[C@@H](CCC(=O)O)C(=O)N[C@@H](Cc1ccncc1)C(=O)N[C@@H](CCCCNC(=O)COCCOCCNC(=O)COCCOCCNC(=O)CC[C@H](NC(=O)CCCCCCCCCCCCCCCCCCC(=O)O)C(=O)O)C(=O)N[C@@H](CC(C)C)C(=O)N[C@@H](CCC(=O)O)C(=O)NCC(=O)NCC(=O)N1CCC[C@H]1C(=O)N[C@@H](CO)C(=O)N[C@@H](CO)C(=O)NCC(=O)N[C@@H](C)C(=O)N1CCC[C@H]1C(=O)N1CCC[C@H]1C(=O)N1CCC[C@H]1C(=O)N[C@@H](CO)C(N)=O)C(C)C)[C@@H](C)CC [Example 119] (H-Y[Aib]EGT[αMePhe(2-F)]ISDYSILLDKIHQ[Aib]DFVE[4Pal]K([AEEA-AEEA-γGlu-C20 diacid])LEGGPSSGAPPPS-NH2) | 68.8 nM | 723 nM |
| CC[C@H](C)[C@H](NC(=O)[C@H](CO)NC(=O)[C@H](Cc1ccc(O)cc1)NC(=O)[C@H](CC(=O)O)NC(=O)[C@H](CO)NC(=O)[C@@H](NC(=O)[C@](C)(Cc1ccccc1F)NC(=O)[C@@H](NC(=O)CNC(=O)[C@H](CCC(=O)O)NC(=O)C(C)(C)NC(=O)[C@@H](N)Cc1ccc(O)cc1)[C@@H](C)O)[C@@H](C)CC)C(=O)N[C@@H](CC(C)C)C(=O)N[C@@H](CC(C)C)C(=O)N[C@@H](CC(=O)O)C(=O)N[C@@H](CCCCN)C(=O)N[C@H](C(=O)N[C@@H](Cc1c[nH]cn1)C(=O)N[C@@H](CCC(N)=O)C(=O)NC(C)(C)C(=O)N[C@@H](CC(=O)O)C(=O)N[C@@H](Cc1ccccc1)C(=O)N[C@H](C(=O)N[C@@H](CCC(=O)O)C(=O)N[C@@H](Cc1ccncc1)C(=O)N[C@@H](CCCCNC(=O)COCCOCCNC(=O)COCCOCCNC(=O)CC[C@H](NC(=O)CCCCCCCCCCCCCCCCCCC(=O)O)C(=O)O)C(=O)N[C@@H](CC(C)C)C(=O)N[C@@H](CCC(=O)O)C(=O)N[C@@H](C)C(=O)NCC(=O)N1CCC[C@H]1C(=O)N[C@@H](CO)C(=O)N[C@@H](CO)C(=O)NCC(=O)N[C@@H](C)C(=O)N1CCC[C@H]1C(=O)N1CCC[C@H]1C(=O)N1CCC[C@H]1C(=O)N[C@@H](CO)C(N)=O)C(C)C)[C@@H](C)CC [Example 120] (H-Y[Aib]EGT[αMePhe(2-F)]ISDYSILLDKIHQ[Aib]DFVE[4Pal]K([AEEA-AEEA-γGlu-C20 diacid])LEAGPSSGAPPPS-NH2) | 575 nM | > 912 nM |

— patent US12723063B2, “GIPR-agonist compounds” (Eli Lilly and Company, priority 2019, dated 2026)
